According to paper PMC8805583, “Discovery of Herbacetin as a Novel SGK1 Inhibitor to Alleviate Myocardial Hypertrophy” (Advanced Science, 2021):

Key:
Experiment in all cases: KinaseProfiler Assay, AGC kinase panel
Assay type in all cases: biochemical
[1] = target: T1, G protein-coupled receptor kinase 3 (GRK3) (Homo sapiens, UniProt P35626); conditions: HBT 10 µmol
T1 construct: purchased Eurofins Discovery (KinaseProfiler Service)
T1 sequence (P35626 1-688): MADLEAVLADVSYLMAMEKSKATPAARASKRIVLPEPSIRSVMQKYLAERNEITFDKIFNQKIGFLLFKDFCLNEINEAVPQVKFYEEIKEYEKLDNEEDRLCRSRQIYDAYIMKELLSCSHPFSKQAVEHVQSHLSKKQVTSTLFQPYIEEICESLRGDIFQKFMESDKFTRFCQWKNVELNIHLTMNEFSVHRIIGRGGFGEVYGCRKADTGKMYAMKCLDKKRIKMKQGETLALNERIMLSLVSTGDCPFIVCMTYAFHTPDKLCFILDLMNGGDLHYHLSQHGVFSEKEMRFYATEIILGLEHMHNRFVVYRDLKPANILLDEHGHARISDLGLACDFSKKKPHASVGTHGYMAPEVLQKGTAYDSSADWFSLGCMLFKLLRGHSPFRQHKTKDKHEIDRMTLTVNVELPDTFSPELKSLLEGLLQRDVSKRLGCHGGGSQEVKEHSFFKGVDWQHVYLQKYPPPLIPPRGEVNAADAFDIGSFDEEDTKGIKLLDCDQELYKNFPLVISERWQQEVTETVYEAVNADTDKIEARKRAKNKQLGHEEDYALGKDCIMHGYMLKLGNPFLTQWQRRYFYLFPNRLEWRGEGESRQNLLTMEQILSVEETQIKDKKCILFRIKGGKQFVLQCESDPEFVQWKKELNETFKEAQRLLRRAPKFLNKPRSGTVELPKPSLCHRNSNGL
Excerpt: (§1) 20 structurally related flavonoids of HBT were collected, which differ in the number and position of —OH groups, and examined for their effects on SGK1 activity. Based on the docking prediction, the —OH group at the C‐4’ position of HBT was required for the interaction with the key SGK1 residue D177. Therefore, the 20 flavonoids were divided into two classes according to the presence or absence of an —OH group at C‐4’ (Figure 4B). At both tested concentrations, flavonoids with an —OH group at C‐4’ (class A) inhibited SGK1 more than those without an —OH group at C‐4’ (class B) (Figure 4C). The IC50 of each compound is listed in Figure 4D; and Figure S6 (Supporting Information). […] Conversely, the absence of an ‐OH group at C‐8 led to a greater than 10‐fold reduction in flavonoid SGK1 inhibitory activity, as shown by the performance of A1 or A4. […] The inhibitory activity of HBT (10 µmol) against 28 human AGC kinases was tested by KinaseProfiler Assay (Eurofins Discovery). The percentage of HBT's inhibitory activity against each kinase was normalized by the respective positive inhibitors of AGC kinases.
(§2) The initial crystal structures of SGK1 (PDB entry: 3HDN, 3HDM, and 2R5T) were obtained from the Protein Data Bank (PDB). The prepared inhibitors were then docked by Glide with the extra precision (XP) scoring mode to estimate the binding affinity for each protein–ligand complex. The detailed process of docking has been described previously.^[ [46] ^] HEK293T cells were transfected with SGK1 mutant plasmids. After 24 h, cells were lysed and immunoprecipitated with anti‐FLAG antibody and beads. Immune complexes were washed with kinase buffer and incubated in kinase buffer with substrate peptide for 1 h at 30 ℃ followed by LC/MS measurement as described above. KINOMEscan Profiling Service and KinaseProfiler Service Assay were provided by Eurofins Discovery.

[2] = target: T2, cGMP-dependent type II protein kinase (PRKG2) (Homo sapiens, UniProt Q13237); conditions: HBT 10 µmol; normalized by positive inhibitors
T2 construct: purchased Eurofins Discovery (KinaseProfiler Service)
T2 sequence (Q13237 1-762): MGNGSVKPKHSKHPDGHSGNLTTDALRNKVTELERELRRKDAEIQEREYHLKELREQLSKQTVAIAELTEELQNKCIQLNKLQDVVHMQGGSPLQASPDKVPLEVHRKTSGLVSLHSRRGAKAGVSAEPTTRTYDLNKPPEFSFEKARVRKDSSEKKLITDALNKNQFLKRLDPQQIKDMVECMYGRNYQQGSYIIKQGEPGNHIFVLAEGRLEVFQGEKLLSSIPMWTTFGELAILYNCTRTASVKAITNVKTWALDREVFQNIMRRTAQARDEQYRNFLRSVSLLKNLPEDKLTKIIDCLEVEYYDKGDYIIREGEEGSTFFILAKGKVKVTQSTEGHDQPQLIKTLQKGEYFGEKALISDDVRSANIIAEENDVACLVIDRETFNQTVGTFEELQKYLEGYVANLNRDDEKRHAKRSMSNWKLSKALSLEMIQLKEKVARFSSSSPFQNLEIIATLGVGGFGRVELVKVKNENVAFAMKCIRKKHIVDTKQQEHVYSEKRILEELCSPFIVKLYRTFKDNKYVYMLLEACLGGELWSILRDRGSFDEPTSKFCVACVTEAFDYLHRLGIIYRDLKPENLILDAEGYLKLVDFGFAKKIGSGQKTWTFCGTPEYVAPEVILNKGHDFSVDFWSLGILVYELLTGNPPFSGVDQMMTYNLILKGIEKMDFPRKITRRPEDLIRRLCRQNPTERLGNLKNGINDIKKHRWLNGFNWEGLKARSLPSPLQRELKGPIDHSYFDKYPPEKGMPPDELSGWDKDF
Excerpt: as §1, §2

[3] = target: T3, SGK3 (Homo sapiens, UniProt Q96BR1); conditions: HBT 10 µmol; normalized by positive inhibitors
T3 construct: purchased Eurofins Discovery (KinaseProfiler Service)
T3 sequence (Q96BR1 1-496): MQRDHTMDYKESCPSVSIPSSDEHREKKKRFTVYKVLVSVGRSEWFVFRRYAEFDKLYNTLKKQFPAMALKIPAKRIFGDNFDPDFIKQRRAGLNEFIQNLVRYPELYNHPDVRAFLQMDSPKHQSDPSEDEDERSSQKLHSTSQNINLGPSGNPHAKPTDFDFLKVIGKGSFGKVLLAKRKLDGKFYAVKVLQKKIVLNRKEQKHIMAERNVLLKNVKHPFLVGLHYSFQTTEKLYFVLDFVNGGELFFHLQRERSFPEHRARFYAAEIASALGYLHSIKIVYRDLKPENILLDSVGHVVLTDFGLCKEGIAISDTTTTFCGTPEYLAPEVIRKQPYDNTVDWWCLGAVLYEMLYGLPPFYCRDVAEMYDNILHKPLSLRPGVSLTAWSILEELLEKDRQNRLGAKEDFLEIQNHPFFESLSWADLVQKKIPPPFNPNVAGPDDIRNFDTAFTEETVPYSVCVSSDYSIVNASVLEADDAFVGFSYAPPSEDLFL
Excerpt: as §1, §2

[4] = target: T4, Rho-associated protein kinas-1 (ROCK-I) (Homo sapiens, UniProt Q13464); conditions: HBT 10 µmol
T4 construct: purchased Eurofins Discovery (KinaseProfiler Service)
Excerpt: as §1, §2

[5] = target: T5, catalytic subunit C-beta of PKA (PKAcβ) (Homo sapiens, UniProt P22694); conditions: HBT 10 µmol
T5 construct: purchased Eurofins Discovery (KinaseProfiler Service)
Excerpt: as §1, §2

T4 sequence (Q13464 whole entry): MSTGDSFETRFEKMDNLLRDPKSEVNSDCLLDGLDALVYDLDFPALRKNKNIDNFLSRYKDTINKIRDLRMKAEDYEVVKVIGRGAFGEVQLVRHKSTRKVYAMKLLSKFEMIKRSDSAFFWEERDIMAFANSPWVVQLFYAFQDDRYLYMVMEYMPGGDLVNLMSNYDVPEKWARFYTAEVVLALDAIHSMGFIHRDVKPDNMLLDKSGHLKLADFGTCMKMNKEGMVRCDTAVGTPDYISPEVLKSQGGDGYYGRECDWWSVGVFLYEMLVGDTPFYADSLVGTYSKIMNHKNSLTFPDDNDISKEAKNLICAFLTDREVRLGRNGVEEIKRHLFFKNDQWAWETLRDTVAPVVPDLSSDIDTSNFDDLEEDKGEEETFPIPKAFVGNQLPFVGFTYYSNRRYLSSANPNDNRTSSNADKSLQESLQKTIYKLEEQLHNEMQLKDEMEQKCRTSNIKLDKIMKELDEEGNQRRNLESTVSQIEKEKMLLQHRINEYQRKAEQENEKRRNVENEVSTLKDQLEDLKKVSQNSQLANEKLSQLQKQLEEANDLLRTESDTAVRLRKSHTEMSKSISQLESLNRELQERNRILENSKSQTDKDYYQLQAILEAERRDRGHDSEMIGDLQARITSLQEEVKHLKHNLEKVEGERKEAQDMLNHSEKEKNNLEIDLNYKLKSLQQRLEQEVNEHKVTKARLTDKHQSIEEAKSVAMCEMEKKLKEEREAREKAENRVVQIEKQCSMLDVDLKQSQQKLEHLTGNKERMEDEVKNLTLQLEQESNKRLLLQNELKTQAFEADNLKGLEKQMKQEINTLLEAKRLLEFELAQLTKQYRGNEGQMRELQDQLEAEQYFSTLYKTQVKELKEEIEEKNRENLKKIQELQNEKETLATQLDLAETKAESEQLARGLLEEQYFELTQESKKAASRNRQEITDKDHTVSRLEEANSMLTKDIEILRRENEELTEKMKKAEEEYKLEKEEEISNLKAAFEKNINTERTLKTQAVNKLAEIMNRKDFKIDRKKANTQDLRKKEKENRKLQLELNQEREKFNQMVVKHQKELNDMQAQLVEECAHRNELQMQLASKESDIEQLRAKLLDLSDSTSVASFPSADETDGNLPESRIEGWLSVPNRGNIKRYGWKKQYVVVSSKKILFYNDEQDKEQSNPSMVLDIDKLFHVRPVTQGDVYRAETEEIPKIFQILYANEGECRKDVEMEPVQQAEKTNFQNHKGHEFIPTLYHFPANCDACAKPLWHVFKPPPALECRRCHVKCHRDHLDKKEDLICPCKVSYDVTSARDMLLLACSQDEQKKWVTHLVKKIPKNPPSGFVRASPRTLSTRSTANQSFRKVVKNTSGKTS

O=c1c(O)c(-c2ccc(O)cc2)oc2c(O)c(O)cc(O)c12 [HBT, herbacetin]
inhibitory effect on GRK3 [1]: high inhibitory effects | inhibitory activity on PRKG2 [2]: 45% | inhibitory activity on SGK3 [3]: 77% | inhibitory effect on ROCK-I [4]: high inhibitory effects | inhibitory effect on PKAcβ [5]: high inhibitory effects
